Laboratory results taken from patent US7388024B2, “Indeno[2,1A]indenes and isoindolo[2,1-A]indoles” (Suven Life Sciences Limited, priority 2004, dated 2008).

Biological target: T1, Human 5HT6 Receptor (Homo sapiens, UniProt P50406)
T1 construct: expressed in transfected cells; host or cells: HEK293 cells
Assay: Binding Assay for Human 5HT6 Receptor
Settings: [3H]LSD 1.5 nM; human recombinant receptor expressed in HEK293 cells
Experimental: Binding Assay for Human 5HT6 Receptor
Receptor source: Human recombinant expressed in HEK293 cells
Radioligand: [^3H]LSD (60-80 Ci/mmol)
Final ligand concentration—[1.5 nM]
Non-specific determinant: Methiothepin mesylate—[0.1 μM]
Reference compound: Methiothepin mesylate
Positive control: Methiothepin mesylate
Reactions are carried out in 50 mM TRIS-HCl (pH 7.4) containing 10 mM MgCl2, 0.5 mM EDTA for 60 minutes at 37° C. The reaction is terminated by rapid vacuum filtration onto glass fiber filters. Radioactivity trapped onto the filters is determined and compared to control values in order to ascertain any interactions of test compound(s) with the cloned serotonin—5HT6 binding site.
• Monsma F. J. Jr., et al., Molecular Cloning and Expression of Novel Serotonin Receptor with High Affinity for Tricyclic Psychotropic Drugs. Mol. Pharmacol. (43): 320-327 (1993).

T1 sequence (P50406 whole entry): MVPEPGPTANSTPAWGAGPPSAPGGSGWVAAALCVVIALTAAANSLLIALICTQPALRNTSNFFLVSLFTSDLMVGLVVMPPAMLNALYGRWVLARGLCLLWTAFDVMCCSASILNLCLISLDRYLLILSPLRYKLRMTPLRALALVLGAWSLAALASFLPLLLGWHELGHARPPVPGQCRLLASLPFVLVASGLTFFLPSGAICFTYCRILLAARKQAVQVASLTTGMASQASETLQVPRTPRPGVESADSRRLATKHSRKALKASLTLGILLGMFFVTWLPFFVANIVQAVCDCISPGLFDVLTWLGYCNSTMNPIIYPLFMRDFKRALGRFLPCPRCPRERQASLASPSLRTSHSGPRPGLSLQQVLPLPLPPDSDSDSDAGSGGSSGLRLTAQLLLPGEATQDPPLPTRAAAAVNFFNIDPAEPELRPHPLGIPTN

IC50 [nM] | Ki [nM] | SMILES
205 | 88.1 | COc1ccc2c(c1)c(C1CCN(C)C1)c1n2S(=O)(=O)c2ccccc2-1 (stereo not shown) [drawing 19]
383 | 172 | COc1ccc2c(c1)c(C1CCN(C)C1)c1n2S(=O)(=O)c2ccccc2-1 (stereo not shown) [drawing 20]
